Experimental data from patent US12692269B2, “Therapeutic compounds” (Genentech, Inc., priority 2019, dated 2026).

What was measured:
Format in all cases: binding
[1] = biological target: TEAD4 TAZ (amino acids 13-57) (Homo sapiens, UniProt Q15561); experiment: TEAD4-TAZ HTRF (TR-FRET) protein-protein interaction assay; details: for TEAD4 TAZ HTRF combined: Max % Inhibition: TEAD4, TAZ peptide; for EC50: TEAD4-TAZ HTRF, TR-FRET 665 nm/615 nm, read-out: TEAD4 TAZ HTRF combined: EC50
Method: (§1) Purified His-tagged TEAD protein (YAP Binding Domain, amino acids 217-447) is pre-incubated with Europium labelled anti-His antibody tracer (Perkin Elmer Cat #AD0110). Small molecule Inhibitors are then incubated with the TEAD-Eu protein complex for 30 minutes to allow for binding to TEAD protein. Biotinylated YAP peptide for TEAD-YAP assays (AA's 50-100) or biotinylated TAZ peptide for TEAD-TAZ assays (AA's 13-57) that has been pre-incubated with streptavidin-xl665 acceptor (CIS-Bio Cat #610SAXAC) or is added to the compound-TEAD mix. The TEAD-YAP-inhibitor mixture is then incubated for 60 minutes at room temperature. All reactions are carried out in a polystyrene plate. After 60 minutes, the plate is read on a plate reader using TR-FRET mode with wavelengths of 665 nm/615 nm. If YAP or TAZ binds to TEAD as expected, a TR-FRET signal results from the proximity of YAP or TAZ and TEAD after binding. If an inhibitor such as peptide 17 (Selleckchem Cat #58164) interferes with YAP-TEAD or TAZ-TEAD binding, the disruption of the YAP or TAZ:TEAD interaction results in a decrease in TR-FRET signal. The potency of compounds as YAP:TEAD or TAZ:TEAD protein-protein interaction (PPi) inhibitors is determined by an IC50 or EC50 value generated using a non-linear four parameter curve fit.

[2] = biological target: TEAD1 TAZ (amino acids 13-57) (Homo sapiens, UniProt P28347); experiment: TEAD1-TAZ HTRF (TR-FRET) protein-protein interaction assay; details: for TEAD1 TAZ HTRF combined: Max % Inhibition: TEAD1, TAZ peptide; for EC50: TEAD1-TAZ HTRF, TR-FRET 665 nm/615 nm, read-out: TEAD1 TAZ HTRF combined: EC50
Method: as §1

[3] = biological target: TEAD2 TAZ (amino acids 13-57) (Homo sapiens, UniProt Q15562); experiment: TEAD2-TAZ HTRF (TR-FRET) protein-protein interaction assay; details: for TEAD2 TAZ HTRF combined: Max % Inhibition: TEAD2, TAZ peptide; for EC50: TEAD2-TAZ HTRF, TR-FRET 665 nm/615 nm, read-out: TEAD2 TAZ HTRF combined: EC50
Method: as §1

[4] = biological target: TEAD2 YAP50-100 (Homo sapiens, UniProt Q15562); experiment: TEAD2-YAP HTRF (TR-FRET) protein-protein interaction assay; details: TEAD2, YAP peptide 50-100, HTRF; for EC50: read-out: TEAD2 YAP50-100 HTRF combined: EC50
Method: as §1

[5] = biological target: TEAD3 TAZ (amino acids 13-57) (Homo sapiens, UniProt Q99594); experiment: TEAD3-TAZ HTRF (TR-FRET) protein-protein interaction assay; details: for TEAD3 TAZ HTRF combined: Max % Inhibition: TEAD3, TAZ peptide; for EC50: TEAD3-TAZ HTRF, TR-FRET 665 nm/615 nm, read-out: TEAD3 TAZ HTRF combined: EC50
Method: as §1

[6] = biological target: TEAD3 YAP50-100 (Homo sapiens, UniProt Q99594); experiment: TEAD3-YAP HTRF (TR-FRET) protein-protein interaction assay; details: TEAD3, YAP peptide 50-100, HTRF; for EC50: read-out: TEAD3 YAP50-100 HTRF combined: EC50
Method: as §1

[7] = biological target: TEAD1 YAP50-100 (Homo sapiens, UniProt P28347); experiment: TEAD1-YAP HTRF (TR-FRET) protein-protein interaction assay; details: TEAD1, YAP peptide 50-100, HTRF; for EC50: read-out: TEAD1 YAP50-100 HTRF combined: EC50
Method: as §1

[8] = biological target: TEAD4 YAP50-100 (Homo sapiens, UniProt Q15561); experiment: TEAD4-YAP HTRF (TR-FRET) protein-protein interaction assay; details: TEAD4, YAP peptide 50-100, HTRF; for EC50: read-out: TEAD4 YAP50-100 HTRF combined: EC50
Method: as §1

Chain of TEAD4 TAZ (amino acids 13-57) (Q15561 217-434 limits assumed): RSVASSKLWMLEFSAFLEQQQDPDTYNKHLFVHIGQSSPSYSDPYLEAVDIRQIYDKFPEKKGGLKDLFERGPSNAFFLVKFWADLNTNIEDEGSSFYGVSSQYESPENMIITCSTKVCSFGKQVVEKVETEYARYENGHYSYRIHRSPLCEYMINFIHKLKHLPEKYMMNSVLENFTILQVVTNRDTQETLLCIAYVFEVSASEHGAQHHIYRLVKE
Chain of TEAD4 YAP50-100 (Q15561 217-434 limits assumed): as above
Chain of TEAD1 YAP50-100 (P28347 167-426 limits assumed): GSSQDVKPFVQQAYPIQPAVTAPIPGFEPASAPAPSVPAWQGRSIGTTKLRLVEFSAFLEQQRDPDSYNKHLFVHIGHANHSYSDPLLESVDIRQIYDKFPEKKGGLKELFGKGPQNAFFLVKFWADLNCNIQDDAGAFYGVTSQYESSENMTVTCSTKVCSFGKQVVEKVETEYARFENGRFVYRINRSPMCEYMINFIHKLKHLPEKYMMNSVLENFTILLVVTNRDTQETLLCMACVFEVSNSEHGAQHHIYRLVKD
Chain of TEAD1 TAZ (amino acids 13-57) (P28347 167-426 limits assumed): as above
Chain of TEAD3 TAZ (amino acids 13-57) (Q99594 173-435 limits assumed): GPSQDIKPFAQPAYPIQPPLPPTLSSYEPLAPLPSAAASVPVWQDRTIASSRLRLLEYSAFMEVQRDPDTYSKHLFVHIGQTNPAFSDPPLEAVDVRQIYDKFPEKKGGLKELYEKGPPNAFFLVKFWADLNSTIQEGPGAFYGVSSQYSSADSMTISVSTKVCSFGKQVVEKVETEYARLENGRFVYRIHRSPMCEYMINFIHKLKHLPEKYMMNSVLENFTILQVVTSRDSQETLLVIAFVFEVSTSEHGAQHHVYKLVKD
Chain of TEAD3 YAP50-100 (Q99594 173-435 limits assumed): as above
Chain of TEAD2 TAZ (amino acids 13-57) (Q15562 217-447): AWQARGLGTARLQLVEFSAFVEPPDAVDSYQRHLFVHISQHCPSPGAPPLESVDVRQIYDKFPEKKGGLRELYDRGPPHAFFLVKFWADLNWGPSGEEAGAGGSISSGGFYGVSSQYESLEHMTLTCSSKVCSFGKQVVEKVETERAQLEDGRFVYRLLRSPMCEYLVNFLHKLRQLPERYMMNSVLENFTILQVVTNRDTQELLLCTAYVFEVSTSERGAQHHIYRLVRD
Chain of TEAD2 YAP50-100 (Q15562 217-447): as above

| TEAD4 TAZ HTRF combined: Max % Inhibition [1] [%] | EC50 [1] [nM] | TEAD1 TAZ HTRF combined: Max % Inhibition [2] [%] | EC50 [2] [nM] | TEAD2 TAZ HTRF combined: Max % Inhibition [3] [%] | EC50 [3] [nM] | TEAD2 YAP50-100 HTRF combined: Max % Inhibition [4] [%] | EC50 [4] [nM] | TEAD3 TAZ HTRF combined: Max % Inhibition [5] [%] | EC50 [5] [nM] | TEAD3 YAP50-100 HTRF combined: Max % Inhibition [6] [%] | EC50 [6] [nM] | TEAD1 YAP50-100 HTRF combined: Max % Inhibition [7] [%] | EC50 [7] [nM] | TEAD4 YAP50-100 HTRF combined: Max % Inhibition [8] [%] | EC50 [8] [nM] | SMILES |
| --- | --- | --- | --- | --- | --- | --- | --- | --- | --- | --- | --- | --- | --- | --- | --- | --- |
| 44.5 | 480 | 41.5 | 240 | 71.0 | 40 | 65.0 | 40 | 73.0 | 260 | 71.5 | 250 | 59.0 | 130 | 47.5 | 550 | CC(CO)c1nn2c(=O)cc(-c3ccc(C4CCCCC4)cc3)[nH]c2c1C(=O)N1CC[C@@H](C#N)C1 (single isomer, unassigned) [Final product obtained using Enantiomer A from Step 4, Example 54] |
| 53.0 | 2100 | 60.5 | 360 | 77.0 | 70 | 83.5 | 80 | 68.0 | 940 | 71.0 | 830 | 66.0 | 430 | 59.5 | 2850 | Cc1nccnc1-c1nn2c(=O)cc(-c3ccc(OC(c4ccccc4)C(F)(F)F)cc3)[nH]c2c1C(=O)N1C[C@H](CF)[C@@H]1C (single isomer, unassigned) [Final product obtained using Enantiomer B from Step 1, Example 56] |
| 58.0 | 60 | 69.5 | 70 | 77.0 | 10 | 76.0 | 10 | 69.5 | 130 | 71.0 | 120 | 76.0 | 60 | 51.5 | 60 | C[C@H]1[C@@H](CF)CN1C(=O)c1c(-c2cnccn2)nn2c(=O)cc(-c3ccc(C4CCCCC4)cc3)[nH]c12 (single isomer, unassigned) [Isomer A, Example 39] |
| 53.0 | 30 | 64.5 | 80 | 70.5 | 10 | 76.0 | 10 | 63.0 | 160 | 68.5 | 140 | 75.0 | 60 | 53.5 | 30 | C[C@@H]1[C@H](CF)CN1C(=O)c1c(-c2ncccn2)nn2c(=O)cc(-c3ccc(C4CCCCC4)cc3)[nH]c12 (single isomer, unassigned) [Isomer A, Example 40] |
| 51.5 | 4900 | 53.5 | 180 | 35.0 | 50 | 26.0 | 60 | 70.0 | 690 | 74.0 | 530 | 69.0 | 150 | 51.0 | 5500 | Cc1nccnc1-c1nn2c(=O)cc(-c3ccc(C4CCCCC4)cc3)[nH]c2c1C(=O)N1C[C@@H](CF)[C@H]1C (single isomer, unassigned) [Isomer A, Example 41] |
| 20.0 | 1100 | 49.0 | 80 | 57.0 | 20 | 45.0 | 20 | 66.0 | 340 | 69.5 | 320 | 64.0 | 80 | 48.5 | 4850 | Cc1nccnc1-c1nn2c(=O)cc(-c3ccc(CC4CCCC4)cc3)[nH]c2c1C(=O)N1C[C@@H](CF)[C@H]1C (single isomer, unassigned) [Isomer A, Example 42] |
| 52.0 | 10 | 54.5 | 30 | 63.0 | 10 | 71.0 | 10 | 52.0 | 60 | 58.5 | 60 | 64.0 | 30 | 52.0 | 10 | C[C@H]1[C@@H](CF)CN1C(=O)c1c(-c2ncccn2)nn2c(=O)cc(-c3ccc(CC4CCCC4)cc3)[nH]c12 (single isomer, unassigned) [Isomer A, Example 43] |
| 42.0 | 9500 | 52.0 | 70 | 56.5 | 40 | 52.0 | 40 | 64.0 | 1200 | 65.5 | 1050 | 64.0 | 60 | 40.0 | 9350 | C[C@H]1[C@@H](CF)CN1C(=O)c1c(-c2cnccn2)nn2c(=O)cc(-c3ccc(CC4CCCC4)cc3)[nH]c12 (single isomer, unassigned) [Isomer A, Example 44, Cis-5-(4-(cyclopentylmethyl)phenyl)-3-(3-(fluoromethyl)-2-methylazetidine-1-carbonyl)-2-(pyrazin-2-yl)pyrazolo[1,5-a]pyrimidin-7(4H)-one] |
| 49.5 | 6200 | 55.0 | 170 | 37.0 | 190 | 17.5 | 170 | 68.0 | 2500 | 67.0 | 2450 | 62.0 | 170 | 46.0 | 6450 | C[C@@H]1[C@H](CF)CN1C(=O)c1c(-c2cnccn2)nn2c(=O)cc(-c3ccc(C4CCCCC4)cc3)[nH]c12 (single isomer, unassigned) [Isomer B, Example 39] |
